# Test results reported in patent US9242977B2, “Trk-inhibiting compound” (ONO PHARMACEUTICAL CO., LTD., priority 2012, dated 2016).
# Assays:
# b-Raf = b-Raf (Homo sapiens (Human), UniProt P15056); assay: Enzyme inhibition activity test for kinases other than Trk (selectivity test): b-Raf; type: biochemical; conditions: test concentration 3 μM; read-out: Inhibition Rate (%) b-Raf
# Description: (§1) A test substance (present compound or comparative compound) was dissolved in dimethylsulfoxide and further diluted with dimethylsulfoxide to prepare a solution having a concentration of 100 times the test concentration of 3 μM. The solution was further diluted to 25-fold with an assay buffer (20 mM HEPES, 0.01% Triton X-100, 2 mM DTT, pH 7.5) to obtain a test substance solution. In a similar manner a positive control substance solution was prepared with a positive control substance.
# (§2) A 4-times concentration solution (5 μL) of the test substance prepared with the assay buffer, 5 μL of a 4-times concentration solution of substrate/ATP/metal (Mg) and 10 μL of a 2-times concentration solution of kinase were mixed in a well of a polypropylene 384-well plate and allowed to react at room temperature for 1 hour. The reaction was terminated by adding 60 μL of a Termination Buffer (QuickScout Screening Assist MSA; Carna Biosciences). The substrate peptide and the phosphorylated peptide in the reaction solution were separated and quantified. The kinase reaction was assessed from the product ratio (P/(P+S)) calculated from the height (S) of the peak of the substrate peptide and the height (P) of the peak of the phosphorylated peptide. Other kinases used in the kinase selectivity experiments were, for example, Abl, c-Met, b-Raf, c-Kit and KDR. The following Table 2 indicates substrates, substrate concentrations, ATP concentrations and positive control substances used in respective kinase enzyme inhibition activity tests.
# (§3) The inhibition rate was calculated from the average signal intensity of the test wells containing respective test substances provided that the average signal intensity of control wells each containing all reaction components was 0% inhibition and the average signal intensity of background wells (without addition of the enzyme) was 100% inhibition.
# KDR = KDR (Homo sapiens (Human), UniProt P35968); assay: Enzyme inhibition activity test for kinases other than Trk (selectivity test): KDR; type: biochemical; conditions: test concentration 3 μM; read-out: Inhibition Rate (%) KDR
# Description: as §1, §2, §3
# c-Kit = c-Kit (Homo sapiens (Human), UniProt P10721); assay: Enzyme inhibition activity test for kinases other than Trk (selectivity test): c-Kit; type: biochemical; conditions: test concentration 3 μM; read-out: Inhibition Rate (%) c-Kit
# Description: as §1, §2, §3
# Abl = Abl (Homo sapiens (Human), UniProt P00519); assay: Enzyme inhibition activity test for kinases other than Trk (selectivity test): Abl; type: biochemical; conditions: test concentration 3 μM; read-out: Inhibition Rate (%) Abl
# Description: as §1, §2, §3
# TrkA = TrkA (Homo sapiens (Human), UniProt P04629); assay: TrkA kinase-inhibiting activity using human TrkA expressing cells (CellSenser TrkA-NFAT-bla CHO-K1, NGF-stimulated reporter assay); type: cell-based; conditions: CHO-K1 cells expressing human TrkA and NFAT-bla; NGF 50 ng/ml; read-out: TrkA inhibitory activity (IC50; μM)
# Description: TrkA kinase-inhibiting activity in cell systems was measured using CHO-K1 cells expressing human TrkA and NFAT-bla (CellSenser™ TrkA-NFAT-bla CHO-K1 cells, Invitrogen).
# On the day before the assay, CellSenser™ TrkA-NFAT-bla CHO-K1 cells were suspended in an assay medium (Opti-MEM1 Reduced Serum Medium (Invitrogen) containing 0.5% dialysed fetal bovine serum (Invitrogen), 0.1 mM nonessential amino acids (Invitrogen), 1 mM sodium pyruvate (Invitrogen) and antibiotics (100 U/mL penicillin and 100 μg/mL streptomycin (Invitrogen)) and plated at a density of 2.4×10^4 cells/40 μL/well in a 96-well clear bottom plate (Corning, Catalogue No.: 3882). In some wells were added only the assay medium at 40 μL/well (Cell-free). On the day of the assay, 10 mM of the present compound (DMSO solution) was distributed in a 96-well plate (Costar, Catalogue No.: 3363) and serially diluted with DMSO with the geometrical ratio of 3. The serial dilutions were diluted with the assay medium to 100-fold to prepare a solution of the present compound with a 10-times concentration (DMSO concentration: 1%). To the plate where cells were plated was added the present compound at 5 μL/well and the plate was incubated in a CO2 incubator with 5% CO2, 95% Air at 37° C. for 30 minutes. For a control and a blank, the assay medium containing 1% DMSO was added at 5 μL/well in place of the solution of the present compound. Subsequently the assay medium containing NGF (Mouse 2.5s, Natural, Invitrogen) was added to the plate at 5 µL/well (final concentration of NGF: 50 ng/ml) and the plate was incubated in a CO2 incubator with 5% CO2, 95% Air at 37° C. for 5 hours. For a group of blanks, the assay medium was added in place of NGF at 5 μL/well. A reporter assay detection reagent (10 μL/well) was added to the plate and the plate was then incubated in the dark at room temperature for 120 minutes. The reporter assay detection reagent was prepared from LiveBLAzer™-FRET B/G Loading Kit (Invitrogen). On an Analyst GT (Molecular Devices Japan, K.K.) the wells were irradiated with excitation light at 405 nm and the fluorescence intensities at 460 nm and 530 nm were measured. The time resolved fluorescence resonance energy transfer (TR-FRET) ratio of each well was calculated according to the following Equation 2. TR-FRET Ratio=(A460X−A460F)/(A530X−A530F) Equation 2
# wherein A460X: the fluorescence intensity at 460 nm of the present compound, control or blank;
# A460F: the fluorescence intensity at 460 nm of the Cell-free;
# A530X: the fluorescence intensity at 530 nm of the present compound, control or blank; and
# A530F: the fluorescence intensity at 530 nm of the Cell-free. […]
# The IC50 value of the present compound was calculated from the inhibition curve based on the inhibition rate of the present compound at respective concentrations.
# c-Met = c-Met (Homo sapiens (Human), UniProt P08581); assay: Enzyme inhibition activity test for kinases other than Trk (selectivity test): c-Met; type: biochemical; conditions: test concentration 3 μM; read-out: Inhibition Rate (%) c-Met
# Description: as §1, §2, §3
# Sequence of c-Met (P08581 25-1390): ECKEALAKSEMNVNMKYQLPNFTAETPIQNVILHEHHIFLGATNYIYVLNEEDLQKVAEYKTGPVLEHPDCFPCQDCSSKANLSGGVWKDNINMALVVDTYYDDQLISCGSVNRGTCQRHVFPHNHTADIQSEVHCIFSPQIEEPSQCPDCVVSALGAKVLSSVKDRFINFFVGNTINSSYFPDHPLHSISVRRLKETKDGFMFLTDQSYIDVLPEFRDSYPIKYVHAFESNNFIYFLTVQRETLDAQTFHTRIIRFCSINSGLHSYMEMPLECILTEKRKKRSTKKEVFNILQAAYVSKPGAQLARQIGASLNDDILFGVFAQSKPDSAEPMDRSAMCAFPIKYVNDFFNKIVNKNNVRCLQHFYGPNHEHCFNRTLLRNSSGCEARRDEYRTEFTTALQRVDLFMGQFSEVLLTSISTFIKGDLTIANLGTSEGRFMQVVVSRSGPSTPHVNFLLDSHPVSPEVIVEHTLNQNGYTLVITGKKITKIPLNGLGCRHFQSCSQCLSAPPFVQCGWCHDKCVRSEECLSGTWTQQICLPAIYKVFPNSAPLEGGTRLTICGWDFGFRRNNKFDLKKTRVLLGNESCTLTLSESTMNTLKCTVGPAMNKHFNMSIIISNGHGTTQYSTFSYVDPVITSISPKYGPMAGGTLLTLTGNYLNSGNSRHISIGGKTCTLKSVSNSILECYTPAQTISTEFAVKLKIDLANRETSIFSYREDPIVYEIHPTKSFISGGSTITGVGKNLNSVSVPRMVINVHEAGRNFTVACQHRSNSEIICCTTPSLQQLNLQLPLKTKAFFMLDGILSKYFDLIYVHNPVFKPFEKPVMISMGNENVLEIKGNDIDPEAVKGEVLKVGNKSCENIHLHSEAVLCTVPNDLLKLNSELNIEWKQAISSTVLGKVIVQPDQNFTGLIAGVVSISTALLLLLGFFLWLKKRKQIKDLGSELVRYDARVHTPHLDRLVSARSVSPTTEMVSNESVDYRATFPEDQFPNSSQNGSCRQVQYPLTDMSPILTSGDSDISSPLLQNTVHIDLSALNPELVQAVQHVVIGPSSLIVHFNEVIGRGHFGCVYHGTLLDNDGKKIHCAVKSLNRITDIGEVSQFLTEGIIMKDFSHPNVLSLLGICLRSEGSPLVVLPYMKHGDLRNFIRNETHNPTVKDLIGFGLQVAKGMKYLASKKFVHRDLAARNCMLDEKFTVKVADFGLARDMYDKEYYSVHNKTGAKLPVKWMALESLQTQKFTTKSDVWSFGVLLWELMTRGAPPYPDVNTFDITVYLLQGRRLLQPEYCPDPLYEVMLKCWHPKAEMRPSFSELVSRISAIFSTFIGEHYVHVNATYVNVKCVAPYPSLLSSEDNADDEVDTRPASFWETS
# Sequence of b-Raf (P15056 whole entry): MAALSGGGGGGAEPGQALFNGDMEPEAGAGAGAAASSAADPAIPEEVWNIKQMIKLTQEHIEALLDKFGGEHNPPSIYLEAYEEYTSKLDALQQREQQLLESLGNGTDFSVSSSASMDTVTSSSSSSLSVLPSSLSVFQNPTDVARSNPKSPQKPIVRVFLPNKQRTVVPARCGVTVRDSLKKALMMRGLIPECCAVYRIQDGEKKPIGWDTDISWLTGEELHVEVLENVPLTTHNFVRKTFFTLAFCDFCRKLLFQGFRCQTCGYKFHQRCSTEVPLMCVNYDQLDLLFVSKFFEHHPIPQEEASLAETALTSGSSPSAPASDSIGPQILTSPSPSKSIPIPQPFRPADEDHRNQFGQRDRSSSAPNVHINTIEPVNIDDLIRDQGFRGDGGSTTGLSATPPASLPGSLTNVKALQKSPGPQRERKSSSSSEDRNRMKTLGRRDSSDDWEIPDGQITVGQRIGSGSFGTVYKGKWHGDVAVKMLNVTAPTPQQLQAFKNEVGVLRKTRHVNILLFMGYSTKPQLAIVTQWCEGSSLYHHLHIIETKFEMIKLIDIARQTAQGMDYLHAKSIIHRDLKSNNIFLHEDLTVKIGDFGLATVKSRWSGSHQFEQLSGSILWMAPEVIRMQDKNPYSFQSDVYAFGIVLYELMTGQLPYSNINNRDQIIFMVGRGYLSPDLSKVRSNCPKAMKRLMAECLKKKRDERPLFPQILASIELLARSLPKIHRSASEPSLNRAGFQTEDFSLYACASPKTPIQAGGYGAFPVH
# Sequence of Abl (P00519 whole entry): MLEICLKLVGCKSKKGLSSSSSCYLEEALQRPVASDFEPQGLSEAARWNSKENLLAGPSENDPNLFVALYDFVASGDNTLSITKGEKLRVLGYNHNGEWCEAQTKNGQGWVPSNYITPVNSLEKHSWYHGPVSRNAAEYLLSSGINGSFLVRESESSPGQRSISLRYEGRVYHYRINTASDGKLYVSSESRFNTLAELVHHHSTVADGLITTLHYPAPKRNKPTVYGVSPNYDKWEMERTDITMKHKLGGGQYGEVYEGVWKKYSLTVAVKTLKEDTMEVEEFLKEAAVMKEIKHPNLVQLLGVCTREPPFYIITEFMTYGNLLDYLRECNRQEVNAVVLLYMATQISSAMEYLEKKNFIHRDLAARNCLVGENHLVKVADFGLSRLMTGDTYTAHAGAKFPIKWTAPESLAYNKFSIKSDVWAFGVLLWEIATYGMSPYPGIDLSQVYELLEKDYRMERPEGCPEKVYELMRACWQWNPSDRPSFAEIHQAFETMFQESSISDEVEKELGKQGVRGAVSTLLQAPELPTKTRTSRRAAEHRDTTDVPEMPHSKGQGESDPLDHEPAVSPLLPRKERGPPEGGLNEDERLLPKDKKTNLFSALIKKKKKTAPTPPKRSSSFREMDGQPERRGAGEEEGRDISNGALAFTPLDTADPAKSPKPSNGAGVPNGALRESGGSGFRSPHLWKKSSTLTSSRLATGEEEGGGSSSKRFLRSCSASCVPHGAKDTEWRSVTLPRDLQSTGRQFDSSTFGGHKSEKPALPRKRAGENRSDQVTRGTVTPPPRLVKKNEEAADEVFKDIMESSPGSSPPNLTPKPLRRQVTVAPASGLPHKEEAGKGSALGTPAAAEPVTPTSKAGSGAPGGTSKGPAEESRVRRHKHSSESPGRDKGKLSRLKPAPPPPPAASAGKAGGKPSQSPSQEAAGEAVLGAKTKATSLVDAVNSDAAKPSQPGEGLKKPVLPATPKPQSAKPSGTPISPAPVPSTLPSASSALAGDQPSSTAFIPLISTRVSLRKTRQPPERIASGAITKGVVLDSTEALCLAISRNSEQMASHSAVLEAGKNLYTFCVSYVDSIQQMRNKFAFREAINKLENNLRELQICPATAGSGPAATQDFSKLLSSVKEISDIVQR
# Sequence of KDR (P35968 20-1356): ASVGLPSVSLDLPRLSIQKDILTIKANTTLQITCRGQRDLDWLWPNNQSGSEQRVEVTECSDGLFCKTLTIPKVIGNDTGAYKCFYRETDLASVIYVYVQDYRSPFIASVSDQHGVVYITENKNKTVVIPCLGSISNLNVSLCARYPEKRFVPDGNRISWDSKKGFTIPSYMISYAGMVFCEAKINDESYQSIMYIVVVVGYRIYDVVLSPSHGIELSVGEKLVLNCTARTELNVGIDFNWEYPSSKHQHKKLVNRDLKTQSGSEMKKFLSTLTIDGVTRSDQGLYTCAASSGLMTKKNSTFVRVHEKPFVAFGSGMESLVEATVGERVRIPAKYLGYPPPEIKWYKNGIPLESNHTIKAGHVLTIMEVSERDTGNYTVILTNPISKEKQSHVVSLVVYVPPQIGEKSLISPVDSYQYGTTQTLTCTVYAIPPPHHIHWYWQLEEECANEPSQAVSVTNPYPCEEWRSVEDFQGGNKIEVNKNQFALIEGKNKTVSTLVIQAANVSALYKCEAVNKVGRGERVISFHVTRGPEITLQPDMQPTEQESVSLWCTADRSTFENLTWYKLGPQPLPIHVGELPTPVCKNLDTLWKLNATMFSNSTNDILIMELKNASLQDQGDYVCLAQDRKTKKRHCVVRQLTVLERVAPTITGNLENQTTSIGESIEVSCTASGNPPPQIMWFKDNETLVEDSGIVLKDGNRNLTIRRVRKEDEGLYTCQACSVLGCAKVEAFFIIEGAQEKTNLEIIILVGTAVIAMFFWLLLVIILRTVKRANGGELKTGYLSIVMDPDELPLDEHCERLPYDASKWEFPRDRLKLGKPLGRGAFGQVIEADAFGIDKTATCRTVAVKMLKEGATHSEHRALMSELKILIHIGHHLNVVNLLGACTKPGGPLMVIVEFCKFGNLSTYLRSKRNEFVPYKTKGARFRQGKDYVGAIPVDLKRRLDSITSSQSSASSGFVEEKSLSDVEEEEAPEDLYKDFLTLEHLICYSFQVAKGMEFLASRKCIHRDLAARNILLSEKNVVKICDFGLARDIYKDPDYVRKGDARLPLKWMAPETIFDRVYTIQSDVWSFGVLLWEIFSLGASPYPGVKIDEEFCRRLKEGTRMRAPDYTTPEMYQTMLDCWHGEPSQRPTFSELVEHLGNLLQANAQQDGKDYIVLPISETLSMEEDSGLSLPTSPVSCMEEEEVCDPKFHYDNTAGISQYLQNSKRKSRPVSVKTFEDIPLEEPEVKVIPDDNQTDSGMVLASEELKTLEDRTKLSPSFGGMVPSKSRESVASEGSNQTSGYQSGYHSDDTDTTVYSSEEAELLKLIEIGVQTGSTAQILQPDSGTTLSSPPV
SMILES,inhibition at 3 µM (b-Raf) [%],inhibition at 3 µM (KDR) [%],inhibition at 3 µM (c-Kit) [%],inhibition at 3 µM (Abl) [%],IC50 (TrkA) [µM],inhibition at 3 µM (c-Met) [%]
"CCCNc1ncc(-c2ccc(Oc3ncc(NC(=O)Nc4cc(C(F)(F)F)ccc4Cl)cn3)cc2)s1 [Example 85-117, 1-[2-chloro-5-(trifluoromethyl)phenyl]-3-(2-{4-[2-(propylamino)-1,3-thiazol-5-yl]phenoxy}-5-pyrimidinyl)urea]",13,0,19,0,0.002,0
"CCNc1ncc(-c2ccc(Oc3ncc(NC(=O)Nc4cc(C(F)(F)F)cnc4Oc4ccccc4)cn3)cc2)s1 [Example 48, 1-(2-{4-[2-(ethylamino)-1,3-thiazol-5-yl]phenoxy}-5-pyrimidinyl)-3-[2-phenoxy-5-(trifluoromethyl)-3-pyridinyl]urea]",,,,,0.01,
"CCNc1ncc(-c2ccc(Oc3ccc(NC(=O)Nc4cc(C(F)(F)F)cnc4-c4ccc(C)c(C)c4)cn3)cc2)s1 [Example 34, 1-[2-(3,4-dimethylphenyl)-5-(trifluoromethyl)-3-pyridinyl]-3-(6-{4-[2-(ethylamino)-1,3-thiazol-5-yl]phenoxy}-3-pyridinyl)urea]",,,,,0.006,
"O=C(Nc1cnc(Oc2ccc(-c3cnc(N4CCCC4=O)s3)cc2)nc1)Nc1cc(C(F)(F)F)cnc1-c1ccccc1 [Example 54, 1-(2-{4-[2-(2-oxo-1-pyrrolidinyl)-1,3-thiazol-5-yl]phenoxy}-5-pyrimidinyl)-3-[2-phenyl-5-(trifluoromethyl)-3-pyridinyl]urea]",17,2.4,7.2,8.9,0.004,0
"CCNc1ncc(-c2ccc(Oc3ncc(NC(=O)Nc4cc(C(F)(F)F)cnc4-c4ccc(C)cc4)cn3)cc2)s1 [Example 23, 1-(2-{4-[2-(ethylamino)-1,3-thiazol-5-yl]phenoxy}-5-pyrimidinyl)-3-[2-(4-methylphenyl)-5-(trifluoromethyl)-3-pyridinyl]urea]",23,15,31,25,0.004,6.5
"Cc1cccc(-c2ncc(C(F)(F)F)cc2NC(=O)Nc2cnc(Oc3ccc(-c4cnc(N5CCCC5=O)s4)cc3)nc2)c1 [Example 57, 1-[2-(3-methylphenyl)-5-(trifluoromethyl)-3-pyridinyl]-3-(2-{4-[2-(2-oxo-1-pyrrolidinyl)-1,3-thiazol-5-yl]phenoxy}-5-pyrimidinyl)urea]",18,0,9.1,0,0.003,4.9
